In data set [1] the test system is immortalized human dermal microvascular endothelial cells (HMEC-1). The data set is described as follows: Cytostatic activity, HMEC-1 proliferation. Type of data set: cell-based. The following applies: HMEC-1, read-out: IC50 HMEC-1, inhibit cell proliferation by 50%.
The test system of data set [2] is human embryonic lung (HEL) cells. The following applies: HEL cell cultures (Table 5); microscopically detectable alteration of normal cell morphology.
For data set [3], the system named is murine leukemia (L1210) cells. The following applies: read-out: IC50 L1210; inhibit cell proliferation by 50%; cited from earlier work.
In data set [4] the test system is human T-lymphocyte (CEM) cells. The following applies: read-out: IC50 CEM; inhibit cell proliferation by 50%; cited from earlier work.
Data set [5] deals with human cervix carcinoma (HeLa) cells. The following applies: read-out: IC50 HeLa; inhibit cell proliferation by 50%; cited from earlier work.
For data set [6], the system named is TK+ VZV Oka strain. The class given is cell-based, varicella-zoster virus.
Data set [7] relates to TK− VZV 07-1 strain. Type of data set: cell-based, varicella-zoster virus.
The subject of data set [8] is Human Coronavirus (229E). Type of data set: cell-based. The following applies: read-out: Antiviral activity EC50 Human Coronavirus (229E).

A value given as a limit tells only on which side of the number the result lay.

Consider `CCOP(=O)(OCC)[C@@H]1C[C@@H](Cn2c(=O)n(C(=O)c3ccc(F)cc3)c(=O)c3ccccc32)ON1C` (relative stereo) [trans-12d, Diethyl trans-{5-[(3-(4-fluorobenzoyl)-2,4-dioxo-3,4-dihydroquinazolin-1(2H)-yl)methyl]-2-methylisoxazolidin-3-yl}phosphonate], for which, in data set [1], the IC50 is over 250 µM. Besides, the Minimum cytotoxic concentration in data set [2] was at least 100 ± 0 µM. Take `CCOP(=O)(OCC)[C@@H]1C[C@@H](Cn2c(=O)n(C(=O)c3ccccc3)c(=O)c3ccccc32)ON1Cc1ccccc1` (relative stereo) [trans-13a, Diethyl trans-{5-[(3-benzoyl-2,4-dioxo-3,4-dihydroquinazolin-1(2H)-yl)methyl]-2-benzylisoxazolidin-3-yl}phosphonate]: the IC50 in data set [1] was over 250 µM.

Take `Nc1nc2c(ncn2COCCO)c(=O)[nH]1` [Acyclovir]: in data set [2], the Minimum cytotoxic concentration is over 250 µM.

In data set [2], `Cc1cn([C@H]2C[C@H](F)[C@@H](CO)O2)c(=O)[nH]c1=O` [Alovudine] returned a Minimum cytotoxic concentration of over 250 µM. With `Nc1ccn(C[C@@H](CO)OCP(=O)(O)O)c(=O)n1.O.O` [Cidofovir], the Minimum cytotoxic concentration in data set [2] is over 250 µM. On the same count and under the same terms, for `Nc1nc(O)c2ncn(COC(CO)CO)c2n1` [Ganciclovir] the value was over 100 µM; for `NC(=O)c1ncn([C@@H]2O[C@H](CO)[C@@H](O)[C@H]2O)n1` [Ribavirin], at least 250 µM; for `Nc1ccn([C@H]2CC[C@@H](CO)O2)c(=O)n1` [Zalcitabine], over 250 µM. For the molecule `CCOP(=O)(OCC)[C@H]1C[C@@H](Cn2ccc(=O)n(C(=O)c3ccccc3)c2=O)ON1C` [cis-11a], the IC50 in data set [3], in data set [4] and in data set [5] was over 200 µM throughout. Take `CCOP(=O)(OCC)[C@H]1C[C@@H](Cn2c(=O)n(C(=O)c3ccccc3)c(=O)c3ccccc32)ON1C` [cis-12a]: the IC50 in data set [3] and in data set [5] was over 200 µM in each case.

Consider `CCOP(=O)(OCC)C1CC(Cn2c(=O)n(Cc3ccccc3F)c(=O)c3ccccc32)ON1Cc1ccccc1` (stereo not drawn) [cis-15b/trans-15b (87:13)], for which the “fold less active against the TK+ virus compared to acyclovir” value in data set [6] was 4–6 fold. Moreover, the “fold more active against the TK– strain compared to acyclovir” value in data set [7] is 10–14 fold. Regarding `CCOP(=O)(OCC)[C@@H]1C[C@@H](Cn2ccc(=O)n(C(=O)c3ccccc3)c2=O)ON1C` [trans-11a], the IC50 in data set [3], in data set [4] and in data set [5] was over 200 µM in each case. As for `CCOP(=O)(OCC)[C@@H]1C[C@@H](Cn2c(=O)n(C(=O)c3ccccc3)c(=O)c3ccccc32)ON1C` [trans-12a], in data set [3], the IC50 is at least 159 µM.

As to `CCOP(=O)(OCC)C1CC(Cn2c(=O)n(Cc3ccc(F)cc3)c(=O)c3ccccc32)ON1Cc1ccccc1` (stereo not drawn) [trans-15d/cis-15d (95:5)], the “fold less active against the TK+ virus compared to acyclovir” value in data set [6] was 4–6 fold. In addition, the “fold more active against the TK– strain compared to acyclovir” value in data set [7] is 10–14 fold.

B1: UDA: Urtica dioica agglutinin (UDA), reference compound (protein, UniProt P11218 24-372, looked up)
Lectin/endochitinase 1: QRCGSQGGGGTCPALWCCSIWGWCGDSEPYCGRTCENKCWSGERSDHRCGAAVGNPPCGQDRCCSVHGWCGGGNDYCSGSKCQYRCSSSVRGPRVALSGNSTANSIGNVVVTEPLFDQMFSHRKDCPSQGFYSYHSFLVAAESFPAFGTIGDVATRKREVAAFLAHISQATSGERSDVENPHAWGLCHINTTTVTENDFCTSSDWPCAAGKKYSPRGPIQLTHNFNYGLAGQAIGEDLIQNPDLVEKDPIISFKTALWFWMSQHDNKPSCHDIVLNANSAANRIPNKGVIGNIISRAFGHDDFAVRSSSIGFYKRYCDMLGVSYGHDLKYWFDNTPSSEFQRIQMRVAA
Consider B1, for which the EC50 (commonly the midpoint of the concentration-response curve) in data set [8] worked out at 0.4 µM. Further, the Minimum cytotoxic concentration in data set [2] is at least 100 µM.

(Values after article PMC7125519 (European Journal of Medicinal Chemistry, 2016).)
